Data from the NIST ThermoML archive (doi:10.1016/j.jct.2014.02.005).
± gives the expanded uncertainty stated by the source.

Conditions: 101.33 kPa, Liquid, Vibrating tube method

Row | SMILES | mass density (313.2 K) | mass density (288.2 K) | mass density (298.2 K)
1 | O [water] | 992.13 ± 1 kg/m3 | – | –
2 | Cc1ccccc1 [toluene] | 848.23 ± 1 kg/m3 | 871.92 ± 1 kg/m3 | 862.49 ± 1 kg/m3
3 | CC(=O)O [acetic acid] | 1026.72 ± 1 kg/m3 | 1055.01 ± 1 kg/m3 | 1043.67 ± 1 kg/m3
